Measurements taken from patent publication US8470849B2, “7-azaindole derivatives as selective 11-β-hydroxysteroid dehydrogenase type 1 inhibitors” (Merck Patent GmbH, priority 2007, dated 2013).
pIC50: −log10 of the molar value.

Key:
Type in all cases: biochemical
human 11-beta HSD-1 = target: T1, human 11-beta HSD-1 (Homo sapiens, UniProt P28845); experiment: 11beta-HSD1 enzyme assay, human recombinant enzyme (HTRF cortisol); details: for pIC50: human recombinant enzyme from E. Coli, cortisone/NADPH, 150 minutes at 37° C., read-out: Inhibition of human 11-beta HSD-1 IC50; for Selectivity Ratio human HSD2/HSD1: ratio of IC50 human HSD2 to human HSD1
T1 construct: made in house; host or cells: E. coli
T1 sequence (P28845 whole entry): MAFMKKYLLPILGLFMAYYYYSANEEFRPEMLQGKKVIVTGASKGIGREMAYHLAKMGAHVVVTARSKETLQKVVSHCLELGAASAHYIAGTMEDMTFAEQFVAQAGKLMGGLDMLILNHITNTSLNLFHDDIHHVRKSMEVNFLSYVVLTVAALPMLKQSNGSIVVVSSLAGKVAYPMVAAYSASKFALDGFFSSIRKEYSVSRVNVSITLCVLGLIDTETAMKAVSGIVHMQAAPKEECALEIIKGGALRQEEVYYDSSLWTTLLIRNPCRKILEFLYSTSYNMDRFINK
Procedure: (§1) Human recombinant 11 beta-hydroxysteroid dehydrogenase type 1 (11 beta-HSD1) and type 2 (11beta-HSD2) enzymes were expressed in E. Coli. Mice and Rat liver microsome fractions were purchased from TEBU.
(§2) Reactions were initiated by addition of 10 μl 11beta-HSD1 (3 μg) from E. Coli, either as microsome fractions from rat and mice liver (2,5 μg). Following mixing, the plates were shaken for 150 minutes at 37° C. The reactions were terminated with 10 μl Acid-18beta glycyrrhetinic stop solution. Determinations of cortisol levels in 11 beta-HSD1 preparations were monitored by HTRF (HTRF cortisol assay from C is bio international).

mouse 11-beta HSD-1 = target: T2, mouse 11-beta HSD-1 (Mus musculus, UniProt P50172); experiment: 11beta-HSD1 enzyme assay, mice liver microsome fractions (HTRF cortisol); details: for pIC50: read-out: Inhibition of mouse 11-beta HSD-1 IC50
T2 construct: Mice and Rat liver microsome fractions were purchased from TEBU; tissue TEBU; host or cells: mouse liver microsome fractions
T2 sequence (P50172 whole entry): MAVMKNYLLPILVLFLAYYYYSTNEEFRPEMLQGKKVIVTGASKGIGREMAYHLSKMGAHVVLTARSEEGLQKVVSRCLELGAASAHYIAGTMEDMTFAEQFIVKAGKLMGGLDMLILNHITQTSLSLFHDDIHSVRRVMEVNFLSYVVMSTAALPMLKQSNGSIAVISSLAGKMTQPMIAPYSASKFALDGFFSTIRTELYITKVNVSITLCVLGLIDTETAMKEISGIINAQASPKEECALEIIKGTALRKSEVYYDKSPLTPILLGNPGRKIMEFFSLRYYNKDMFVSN
Procedure: as §1, §2

rat 11-beta HSD-1 = target: T3, rat 11-beta HSD-1 (Rattus norvegicus, UniProt P16232); experiment: 11beta-HSD1 enzyme assay, rat liver microsome fractions (HTRF cortisol); details: for pIC50: read-out: Inhibition of rat 11-beta HSD-1 IC50
T3 construct: Mice and Rat liver microsome fractions were purchased from TEBU; tissue TEBU; host or cells: rat liver microsome fractions
T3 sequence (P16232 whole entry): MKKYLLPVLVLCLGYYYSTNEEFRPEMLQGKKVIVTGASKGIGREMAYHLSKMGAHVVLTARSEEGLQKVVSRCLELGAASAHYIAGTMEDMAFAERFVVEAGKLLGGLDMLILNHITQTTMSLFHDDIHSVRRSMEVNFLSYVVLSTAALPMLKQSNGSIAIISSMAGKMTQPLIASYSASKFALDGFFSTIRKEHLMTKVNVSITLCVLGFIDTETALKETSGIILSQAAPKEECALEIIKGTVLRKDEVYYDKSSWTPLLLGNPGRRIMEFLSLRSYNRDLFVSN
Procedure: as §1, §2

human 11-beta HSD-2 = target: T4, human 11-beta HSD-2 (Homo sapiens, UniProt P80365); experiment: 11beta-HSD2 enzyme assay, human recombinant enzyme; details: cortisol/NAD, read-out: Inhibition of human 11-beta HSD-2 IC50
T4 construct: made in house; host or cells: E. coli
T4 sequence (P80365 1-405): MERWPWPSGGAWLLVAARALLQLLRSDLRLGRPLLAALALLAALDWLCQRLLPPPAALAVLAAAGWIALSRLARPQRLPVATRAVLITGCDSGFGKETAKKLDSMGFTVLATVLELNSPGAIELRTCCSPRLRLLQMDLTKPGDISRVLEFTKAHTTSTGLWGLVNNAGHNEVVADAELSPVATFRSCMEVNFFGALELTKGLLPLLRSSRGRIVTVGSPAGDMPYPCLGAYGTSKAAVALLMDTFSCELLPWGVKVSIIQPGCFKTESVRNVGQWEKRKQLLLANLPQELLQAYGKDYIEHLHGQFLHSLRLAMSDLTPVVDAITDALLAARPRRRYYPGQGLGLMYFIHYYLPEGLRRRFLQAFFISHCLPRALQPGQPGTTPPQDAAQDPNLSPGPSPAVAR
From the text: as §1

pIC50 (human 11-beta HSD-1)	pIC50 (mouse 11-beta HSD-1)	pIC50 (rat 11-beta HSD-1)	SMILES	also measured
7.54	–	–	O=C(CS(=O)(=O)c1ccc(Cl)cc1)N1CCC(c2c[nH]c3ncccc23)C1 (stereo not shown) [Ex. 20, 2-(4-Chloro-benzenesulfonyl)-1-[3-(1H-pyrrolo[2,3-b]pyridine-3-yl)-pyrrolidine-1-yl]-ethanone]	–
6.27	6.02	6.29	O=C(C1CCCCC1)N1CCC(c2c[nH]c3ncccc23)C1 (stereo not shown) [Ex. 3, (Cycloxexyl)-[3-(1H-pyrrolo[2,3-b]pyridine-3-yl)-pyrrolidine-1-yl]-methanone]	–
5.94	–	–	CC(C)(C(=O)N1CCC(c2c[nH]c3ncccc23)CC1)N1CCN(c2ccc(C(F)(F)F)cn2)CC1 [Ex. 13, 2-Methyl-1-[4-(1H-pyrrolo[2,3-b]pyridin-3-yl)-piperidine-1-yl]-2-[4-(5-trifluoromethyl-pyridine-2-yl)-piperazine-1-yl]-propan-1-one]	–
8.01	–	6.04	CC(C)(C(=O)N1CCC(c2c[nH]c3ncccc23)C1)c1ccc(Cl)cc1 (stereo not shown) [Ex. 9, 2-(4-Chlorophenyl)-2-methyl-1-[3-(1H-pyrrolo[2,3-b]pyridine-3-yl)-pyrrolidine-1-yl]-propan-1-one]	Selectivity Ratio human HSD2/HSD1 (human 11-beta HSD-1): > 1000
7.30	–	7.32	O=C(N1CCC(c2c[nH]c3ncccc23)C1)C1(c2ccccc2)CC1 (stereo not shown) [Ex. 8, (1-Phenyl-cyclopropyl)-[3-(1H-pyrrolo[2,3-b]pyridine-3-yl)-pyrrolidine-1-yl]-methanone]	Selectivity Ratio human HSD2/HSD1 (human 11-beta HSD-1): >200
6.96	–	–	CC(C)(COc1ccc(F)cc1)CC(=O)N1CCC(c2c[nH]c3ncccc23)CC1 [Ex. 14, 4-(4-Fluoro-phenoxy)-3,3-dimethyl-1-[4-(1H-pyrrolo[2,3-b]pyridine-3-yl)-piperidine-1-yl]-butan-1-one]	Inhibition of mouse 11-beta HSD-1, activity in % of Ctrl (mouse 11-beta HSD-1; at 1 μM): 86% of Ctrl; Inhibition of rat 11-beta HSD-1, activity in % of Ctrl (rat 11-beta HSD-1; at 1 μM): 85% of Ctrl
7.80	5.68	–	CC(C)(COc1ccc(F)cc1)CC(=O)N1CCC(c2c[nH]c3ncccc23)C1 (stereo not shown) [Ex. 17, 4-(4-Fluoro-phenoxy)-3,3-dimethyl-1-[3-(1H-pyrrolo[2,3-b]pyridine-3-yl)-pyrrolidine-1-yl]-butan-1-one]	–
–	6.77	7.37	CN(C)c1ccc(C(=O)N2CCC(c3c[nH]c4ncccc34)C2)cc1 (stereo not shown) [Ex. 7, (4-Dimethylaminophenyl)-[3-(1H-pyrrolo[2,3-b]pyridine-3-yl)-pyrrolidine-1-yl]-methanone]	pIC50 (human 11-beta HSD-2): < 5.00
